# Measured values as given in US11173133B2, “Zeaxanthin formulations with additional ocular-active nutrients, for protecting eye health and treating eye disorders” (ZeaVision LLC, priority 2003, dated 2021).
# Read-outs that look alike come from different tables or passages of the source.
# Legend:
# wet macular degeneration = assay: laser treatment using verteporfin in a patient with wet macular degeneration taking zeaxanthin; assay type: in vivo, human; conditions: one patient, daily zeaxanthin capsules before and after treatment
# Excerpt: As another example of the uncertainties and doubts that surround zeaxanthin among skilled physicians who treat eye diseases, the Inventor has personal knowledge of a patient who has the “wet” (or “exudative”) form of macular degeneration. This disease is characterized by aggressive growth of capillaries in and around certain layers of the retina, and it leads to rapid and devastating loss of vision. The best known treatment for wet AMD is called laser photocoagulation, or photodynamic therapy. It uses a drug called verteporfin, which is activated by a laser that is shone directly into the eyes of patients who have taken the drug. In October of 2003, a ZeaVision customer (a person) who was taking zeaxanthin capsules on a daily basis was scheduled to have a laser treatment using verteporfin, at the Wilmer Eye Institute in Baltimore, which is affiliated with the Johns Hopkins School of Medicine. This patient told their treating physician, who is one of the top experts in the world on treating macular degeneration, that they were taking zeaxanthin capsules on a daily basis. […] The results of that treatment, as measured up until the date this is being written, have been outstanding, and have been much better than was expected by the treating physician. […]
# [1] = chemical / lab tests, cited from earlier work
# sunburn = sunburn after controlled high-intensity UV exposure of small skin areas in human volunteers; assay type: in vivo; conditions: 50 to 80 mg/day; small areas of skin exposed to medical-grade UV lamp
# Protocol: (§1) As mentioned above, the categories of pharmaceutical preparations and dietary (nutritional) supplements overlap, and there is no specific upper limit for dosages that would cause a dietary (nutritional) supplement to be reclassified as a pharmaceutical preparation. Safety data that was gathered on zeaxanthin, using high-dosage tests involving rats, indicated a “no adverse effect limit” (NOEL) level of at least 1200 mg/day. […] Accordingly, people who want tans, or who are planning to go on a vacation or other trip that will involve exposure to abnormally high levels of sunlight, may take large quantities of zeaxanthin (up to or even exceeding 100 mg/day), to help them avoid sunburn and obtain a deeper tanned color on their skin. Such use, even at very high quantities, would be regarded as taking a dietary supplement rather than a pharmaceutical, and such dosages would still remain far below the NOAEL levels that were determined by animal tests.
# [2] = small-scale tests of high-dose zeaxanthin in human volunteers (safety, skin tone); assay type: in vivo; conditions: dosages of 50 to 80 mg/day
# Protocol: as §1
# [3] = rats, high-dosage tests; Roche Vitamins 75-day Premarket Notification, FDA number 95S-0316; cited from earlier work
# macular degeneration [4] = conditions: oral dosages; Newsome et al 1988 and others; cited from earlier work
# macular degeneration [5] = conditions: cited from earlier work
# [6] = naturally-occurring dextrorotatory stereoisomer; cited from earlier work
compound,measurement,setting,value
CC1=C(/C=C/C(C)=C/C=C/C(C)=C/C=C/C=C(C)/C=C/C=C(C)/C=C/C2=C(C)C[C@@H](O)CC2(C)C)C(C)(C)C[C@H](O)C1 [zeaxanthin],results of laser-verteporfin treatment,wet macular degeneration,outstanding
same,"potency in absorbing and quenching oxygen free radicals (anti-oxidant), versus lutein",[1],more potent and effective than lutein
same,"potency in absorbing and quenching oxygen free radicals (anti-oxidant), versus lutein",[1]; listed as Zeaxanthin,better and more potent anti-oxidant than lutein
same,risk and severity of sunburn,sunburn,effective in reducing a person's risk and severity of sunburn
same,safety in human volunteers,[2],entirely safe
same,"""no adverse effect limit"" (NOEL) level",[3],at least 1200 mg/day
[Zn] [zinc],results of oral zinc in macular degeneration and other ocular problems,macular degeneration [4],"good, although not especially strong"
same,level of protection against macular degeneration,"macular degeneration [5]; AREDS-1, high dosages (zinc 80 mg/day), some but not all patient categories",low and weak level of protection
same,benefits of zinc in the AREDS-1 trial,"macular degeneration [5]; compared with the combination of vitamins A, C, and E","strong enough to roughly match the benefits provided by a combination of vitamins A, C, and E"
O=C(O)CCCC[C@@H]1CCSS1 (racemic) [lipoic acid],anti-oxidant activity versus S (levorotatory) isomers,[6],better anti-oxidant activity
